Results reported in patent publication US8372847B2, “Pyrazinone modulator of corticotropin-releasing factor receptor activity” (Bristol-Myers Squibb Company, priority 2008, dated 2013).

How the values were obtained:
CRF2 receptor = target: T1, CRF2 receptor (Sus scrofa, UniProt B8Q4Z9); assay: CRF2 binding assay, 125I-sauvagine competition, porcine choroid plexus membrane; details: n=3; read-out: IC50 at CRF2 receptors of porcine choroid plexus membrane
T1 construct: the CRF2 receptors endogenously expressed on the porcine choroid plexus membrane; from tissue; host or cells: porcine choroid plexus
T1 sequence (B8Q4Z9 1-411): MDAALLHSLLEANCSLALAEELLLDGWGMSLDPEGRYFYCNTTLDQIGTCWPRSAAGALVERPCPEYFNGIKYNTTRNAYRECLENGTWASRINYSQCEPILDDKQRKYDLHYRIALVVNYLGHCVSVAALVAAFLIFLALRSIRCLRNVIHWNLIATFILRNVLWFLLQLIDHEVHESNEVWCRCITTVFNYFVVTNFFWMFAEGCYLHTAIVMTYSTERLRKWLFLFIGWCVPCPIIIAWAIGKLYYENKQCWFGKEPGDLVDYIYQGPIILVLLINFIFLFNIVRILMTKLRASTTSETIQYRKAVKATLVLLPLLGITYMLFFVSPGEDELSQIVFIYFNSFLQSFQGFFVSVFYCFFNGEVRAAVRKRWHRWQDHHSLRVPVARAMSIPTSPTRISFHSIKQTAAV
Description: CRF2 Binding Assay. Frozen porcine choroid plexus was thawed rapidly in assay buffer containing 50 mM Hopes (pH 7.0 at 23° C.), 10 mM MgCl2, 2 mM EGTA, 1 μg/ml aprotinin, 1 μg/ml leupeptin, 1 μg/ml pepstatin A, 0.005% Triton X-100, 10 U/ml bacitracin and 0.1% ovalbumin and homogenized. The suspension was centrifuged at 32000×g for 30 minutes. The resulting supernatant was discarded and the pellet resuspended by homogenization in assay buffer and centrifuged again. The supernatant was discarded and the pellet resuspended by homogenization in assay buffer and frozen at −70° C. On the day of the experiment aliquots of the homogenate were thawed quickly and 10 μg/well added to 100 pM ^125I-sauvagine and drugs in a total volume of 100 μl assay buffer. The assay mixture was incubated for 2 hr at 21° C. Bound and free radioligand were then separated by rapid filtration using glass fiber filters (Whatman GF/B, pretreated with 0.3% PEI) on a Brandel Cell Harvester. Filters were then washed multiple times with ice cold wash buffer (PBS w/o Ca^2+ and Mg^2+, 0.01% Triton X-100 (pH 7.0 at 23° C.)). Non-specific binding was defined using 1 μM α-helical CRF (9-41). Filters were then counted in a Wallac Wizard gamma counter. IC50 values were determined in a five point (five drug concentrations) competition assay using non-linear regression by Microsoft Excel-fit.
Binding Results. […]

CRF1 receptor = target: T2, CRF1 receptor (Rattus norvegicus, UniProt P35353); assay: CRF1 binding assay, 125I-o-CRF competition, rat frontal cortex membrane; details: n=10; for Hill Slope: 125I-o-CRF binding, rat frontal cortex membrane; for IC50: 5 point and 10 point competition assays, read-out: IC50, inhibition of 125I-o-CRF binding to rat frontal cortex membrane
T2 construct: rat frontal cortex membrane as the receptor source; from tissue; host or cells: rat frontal cortex
T2 sequence (P35353 24-415): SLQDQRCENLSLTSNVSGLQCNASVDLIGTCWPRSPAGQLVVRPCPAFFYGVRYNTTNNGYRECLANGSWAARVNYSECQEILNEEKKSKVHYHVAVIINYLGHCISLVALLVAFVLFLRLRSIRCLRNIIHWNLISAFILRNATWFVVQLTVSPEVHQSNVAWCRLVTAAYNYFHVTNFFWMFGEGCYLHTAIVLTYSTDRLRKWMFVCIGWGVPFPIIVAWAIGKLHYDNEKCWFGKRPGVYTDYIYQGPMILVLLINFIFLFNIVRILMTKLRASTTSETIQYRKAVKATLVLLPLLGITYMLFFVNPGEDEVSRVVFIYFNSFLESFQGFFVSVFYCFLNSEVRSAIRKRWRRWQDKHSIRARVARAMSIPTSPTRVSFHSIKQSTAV
Description: CRF1 Binding Assay. Frozen rat frontal cortex was thawed rapidly in assay buffer containing 50 mM Hepes (pH 7.0 at 23° C.), 10 mM MgCl2, 2 mM EGTA, 1 μg/ml aprotinin, 1 μg/ml leupeptin, 1 μg/ml pepstatin A, 0.005% Triton X-100, 10 U/ml bacitracin and 0.1% ovalbumin and homogenized. The suspension was centrifuged at 32000×g for 30 minutes. The resulting supernatant was discarded and the pellet resuspended by homogenization in assay buffer and centrifuged again. The supernatant was discarded and the pellet resuspended by homogenization in assay buffer and frozen at −70° C. On the day of the experiment aliquots of the homogenate were thawed quickly and 25 μg/well added to 150 pM ^125I-ovine-CRF (^125I-o-CRF) and drugs in a total volume of 100 μl assay buffer. The assay mixture was incubated for 2 hr at 21° C. Bound and free radioligand were then separated by rapid filtration using glass fiber filters (Whatman GF/B, pretreated with 0.3% PEI (polyethylenimine)) on a Brandel Cell Harvester. Filters were then washed multiple times with ice cold wash buffer (PBS w/o Ca^2+ and Mg^2+, 0.01% Triton X-100; pH 7.0 at 23° C.). Non-specific binding was defined using 1 μM DMP696, a CRF1 selective antagonist [Li, Y-W. et al., CNS Drug Reviews 11: 21-52, (2005)]. Filters were then counted in a Wallac Wizard gamma counter. IC50 values were determined in a five point (five drug concentrations) or ten point (ten drug concentrations) competition assay using non-linear regression by Microsoft Excel-fit.
Binding Results. The primary screen to determine binding potency (IC50 value) of (S)-4-(1-cyclopropyl-2-methoxyethyl)-6-(6-(difluoromethoxy)-2,5-dimethylpyridin-3-ylamino)-5-oxo-4,5-dihydropyrazine-2-carbonitrile at the CRF1 receptor was a competition binding experiment utilizing ^125I-o-CRF as the labeled peptide ligand and rat frontal cortex membrane as the receptor source. […] (S)-4-(1-Cyclopropyl-2-methoxyethyl)-6-(6-(difluoromethoxy)-2,5-dimethylpyridin-3-ylamino)-5-oxo-4,5-dihydropyrazine-2-carbonitrile also bound with high affinity to the native CRF1 receptors present on the human retinoblastoma cell line Y79.

Male Sprague-Dawley rats = details: previous CRF1 antagonists, literature (McElroy 2002; Lelas 2004); cited from earlier work

| SMILES | IC50 (CRF2 receptor) [nM] | Hill Slope (CRF1 receptor) | IC50 (CRF1 receptor) [nM] | effectiveness in the situational anxiety model (Male Sprague-Dawley rats) |
| --- | --- | --- | --- | --- |
| COC[C@H](C1CC1)n1cc(C#N)nc(Nc2cc(C)c(OC(F)F)nc2C)c1=O [(S)-4-(1-cyclopropyl-2-methoxyethyl)-6-(6-(difluoromethoxy)-2,5-dimethylpyridin-3-ylamino)-5-oxo-4,5-dihydropyrazine-2-carbonitrile] | > 10000 | 0.94±0.03 | 0.86 ± 0.04 | – |
| COCC(COC)Nc1nc(C)nc2c(-c3ccc(Cl)cc3Cl)c(C)nn12 [DMP696] | – | 1.00±0.02 | 1.39 ± 0.09 | effective |
